In one assay the target is type IV procollagenase (Homo sapiens, UniProt P08253). Particulars: 10 mM EDTA; 1 mM pAPMA, 37° C.
The target of a further assay is T1, type IV collagenase (Homo sapiens, UniProt P08253).
T1 construct: endogenous in cells; host or cells: human A2058 melanoma cells
T1 sequence (P08253 110-660): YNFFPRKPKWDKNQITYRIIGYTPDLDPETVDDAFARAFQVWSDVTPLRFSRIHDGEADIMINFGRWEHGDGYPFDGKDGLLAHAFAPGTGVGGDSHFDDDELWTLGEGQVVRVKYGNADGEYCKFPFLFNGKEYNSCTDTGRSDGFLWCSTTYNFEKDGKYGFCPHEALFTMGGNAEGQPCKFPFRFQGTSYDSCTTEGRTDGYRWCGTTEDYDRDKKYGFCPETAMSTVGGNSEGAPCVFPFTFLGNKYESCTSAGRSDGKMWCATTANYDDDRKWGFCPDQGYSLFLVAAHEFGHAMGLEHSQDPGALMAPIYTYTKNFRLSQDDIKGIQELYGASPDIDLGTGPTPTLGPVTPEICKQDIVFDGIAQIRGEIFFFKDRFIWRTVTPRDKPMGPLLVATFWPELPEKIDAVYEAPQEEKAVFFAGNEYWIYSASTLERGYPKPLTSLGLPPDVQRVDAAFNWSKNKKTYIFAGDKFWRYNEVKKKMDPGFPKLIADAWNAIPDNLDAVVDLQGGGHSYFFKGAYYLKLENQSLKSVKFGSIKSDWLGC
Nature of the assay: soluble type IV collagenase assay (3H-type IV collagen degradation). It counts as biochemical. The conditions noted are these: peptide 0.1 mM; purified activated type IV collagenase, pepsinized type IV collagen (FIG. 11). How it is done: FIG. 11 illustrates the dose dependent inhibition of purified activated type IV collagenase cleavage of pepsinized type IV collagen by the designated synthetic peptides. Peptide TMRKPRCGNPDVAN at a concentration of 0.1 mM inhibits 80% of the enzyme activity.
The procedure for the collagenase assay of this example utilized the following preparation.
1. Place enzyme sample activator (usually 1 mM pAPMA) and test solution in 1.5 ml Eppendorf tube. Combined volume must equal 60 μl. Add 1× collagenase buffer, if necessary. If necessary, preincubate.
2. Prepare type Iv collagen substrate by diluting stock ^3 H-type IV collagen (NEN #NET-931 lot #2511-018) 1:120 with 1× collagenase buffer. Heat to 55° C. for 10 minutes and cool on ice.
3. Add 5 μl of diluted mH-type IV collagen solution to each assay tube. Vortex to mix and incubate at 28° C. for 4 hours.
4. At the end of the incubation period, add 2 μl of carrier BSA solution and 7 μl of TCATAP solution. Vortex mix and allow to stand on ice for at least 10 minutes.
5. Pellet the precipitate by centrifuging in the microfuge for 10 minutes with the speed set at 6. Orient the tubes when placing them in the microfuge in order that the position of the pellet will be known.
6. Immediately after centrifugation, aspirate 55 μl of the supernatant and place in a scintillation vial. Add 5 ml of scintillation cocktail, shake well and count. […]

Where no end group is shown, it is not given here.

type IV procollagenase, sequence (P08253 30-660 limits assumed): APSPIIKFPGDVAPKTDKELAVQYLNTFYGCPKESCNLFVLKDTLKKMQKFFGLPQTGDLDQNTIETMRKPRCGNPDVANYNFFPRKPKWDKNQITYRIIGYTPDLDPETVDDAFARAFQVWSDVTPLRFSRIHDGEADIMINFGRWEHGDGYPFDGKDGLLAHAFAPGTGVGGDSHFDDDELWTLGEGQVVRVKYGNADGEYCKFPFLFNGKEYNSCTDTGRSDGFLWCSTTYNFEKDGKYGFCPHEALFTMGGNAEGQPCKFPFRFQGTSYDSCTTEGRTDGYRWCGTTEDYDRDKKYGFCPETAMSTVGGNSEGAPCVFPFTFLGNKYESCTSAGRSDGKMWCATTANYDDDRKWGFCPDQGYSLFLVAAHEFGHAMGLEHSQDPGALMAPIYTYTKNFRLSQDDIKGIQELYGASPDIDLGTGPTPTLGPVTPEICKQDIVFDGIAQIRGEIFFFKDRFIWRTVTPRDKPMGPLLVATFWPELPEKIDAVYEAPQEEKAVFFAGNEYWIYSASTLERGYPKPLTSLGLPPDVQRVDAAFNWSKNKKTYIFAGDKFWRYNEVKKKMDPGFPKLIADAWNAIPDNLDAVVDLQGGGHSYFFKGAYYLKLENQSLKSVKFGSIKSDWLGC
Method for type IV procollagenase: 20 μl aliquots of A2058 melanoma cell conditioned media were activated in the presence of 1.0 mM pAPMA for the indicated times (min). The reactions were stopped by the addition of EDTA to 10 mM and the samples were electrophoresed on a 9% acrylamide gel with or without gelatin. The gelatin containing gels were developed as zymograms after electrophoresis.
Stock solutions of 0.01M p-APMA in 0.05N NaOH were prepared fresh daily. Proenzyme samples were incubated with a final concentration 0.5 or 1.0 mM p-APMA for varying times (0-16 hours) at 37° C. Following incubation, the samples were analyzed directly by NaDodSO4 -PAGE on 9% acrylamide gels containing 0.1% gelatin (gelatin zymogram). Alternatively, the samples were run on 9% NaDodSO4 -PAGE and electroblotted onto Immobilon P membranes (Millipore).

`O=C(O)CN(CCN(CC(=O)O)CC(=O)O)CC(=O)O` [EDTA]: the “conversion of 70 kDa band to 62 kDa form” value on type IV procollagenase is “completely inhibited”. On to “TMRKPRCGNPDVAN [Peptide 74, TMRKPRCGNPDVAN]”, for which the “inhibition of enzyme activity” value on type IV collagenase is 80%.

The values are drawn from patent US5585356A, “Matrix metalloproteinase peptides: role in diagnosis and therapy” (priority 1994, dated 1996).
